Results on one substance are retold here after patent US12024498B2, “Radical compounds and methods of using thereof” (OHIO STATE INNOVATION FOUNDATION, priority 2017, dated 2024).

The target in this assay is 13C,15N-wt-huPrP23-144 fibrils (Homo sapiens, UniProt P04156).
[1] abbreviates: 12 mM biradical in 6:3:1 d8-glycerol/D2O/H2O, 12 kHz MAS.

Where two headings read alike, the source gives them in different places.

13C,15N-wt-huPrP23-144 fibrils, sequence (P04156 23-144 limits assumed): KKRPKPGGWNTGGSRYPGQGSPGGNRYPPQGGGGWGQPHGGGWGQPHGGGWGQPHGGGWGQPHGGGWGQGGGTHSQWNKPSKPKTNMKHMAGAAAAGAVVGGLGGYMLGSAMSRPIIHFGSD

In turn, TOAC-TOAC-Ser [TTS] showed an Optimal recycle delay (12 mM biradical in 6:3:1 d8-glycerol/D2O/H2O) of 1.52 s. In addition, under setting [1], the “1H T1” value was 1.29 s, the εDNP is 18-25 and the τDNP came to 1.21 s. For the same substance, the τDNP (12 mM biradical, huPrP23-144 fibril samples) amounted to 2 s.
